How the values were obtained:
OVCAR-5 = assay: panel of 60 human tumor cell lines, growth inhibition (Ovarian Cancer); conditions: OVCAR-5
NCI-H322M = assay: panel of 60 human tumor cell lines, growth inhibition (Non-Small Cell Lung Cancer)
SN12C = assay: panel of 60 human tumor cell lines, growth inhibition (Renal Cancer)
HT29 = assay: panel of 60 human tumor cell lines, growth inhibition (Colon Cancer); conditions: HT29
HCT-116 = assay: as above; conditions: HCT-116
MDA-MB-435 = assay: panel of 60 human tumor cell lines, growth inhibition (Melanoma); conditions: MDA-MB-435
A498 = assay: panel of 60 human tumor cell lines, growth inhibition (Renal Cancer); conditions: A498
786-0 = assay: as above; conditions: 786-0
NCI-H460 = assay: panel of 60 human tumor cell lines, growth inhibition (Non-Small Cell Lung Cancer); conditions: NCI-H460

C=C1C(=O)O[C@H]2[C@H]1CC/C(COC(=O)N1CCN(C)CC1)=C\CC[C@@]1(C)O[C@@H]21 [JVM 2-44]
GI50 (OVCAR-5): 13.4 µM | TGI (OVCAR-5): 3.03E−5 | Mean Optical Densities (OVCAR-5; Log10 Concentration −4.0): 0.201 | Percent Growth (OVCAR-5; Log10 Concentration −4.0): −73% | Mean Optical Densities (OVCAR-5; Log10 Concentration −5.0): 1.240 | Percent Growth (OVCAR-5; Log10 Concentration −5.0): 68% | Mean Optical Densities (OVCAR-5; Log10 Concentration −6.0): 1.400 | Percent Growth (OVCAR-5; Log10 Concentration −6.0): 89% | Mean Optical Densities (OVCAR-5; Log10 Concentration −7.0): 1.404 | Percent Growth (OVCAR-5; Log10 Concentration −7.0): 90% | Mean Optical Densities (OVCAR-5; Log10 Concentration −8.0): 1.415 | Percent Growth (OVCAR-5; Log10 Concentration −8.0): 91% | GI50 (NCI-H322M): 16.2 µM | TGI (NCI-H322M): 5.44E−5 | Mean Optical Densities (NCI-H322M; Log10 Concentration −4.0): 0.569 | Percent Growth (NCI-H322M; Log10 Concentration −4.0): −25% | Mean Optical Densities (NCI-H322M; Log10 Concentration −5.0): 1.434 | Percent Growth (NCI-H322M; Log10 Concentration −5.0): 70% | Mean Optical Densities (NCI-H322M; Log10 Concentration −6.0): 1.650 | Percent Growth (NCI-H322M; Log10 Concentration −6.0): 93% | Mean Optical Densities (NCI-H322M; Log10 Concentration −7.0): 1.624 | Percent Growth (NCI-H322M; Log10 Concentration −7.0): 91% | Mean Optical Densities (NCI-H322M; Log10 Concentration −8.0): 1.649 | Percent Growth (NCI-H322M; Log10 Concentration −8.0): 93% | GI50 (SN12C): 4.4 µM | TGI (SN12C): 2.80E−5 | Mean Optical Densities (SN12C; Log10 Concentration −4.0): 0.189 | Percent Growth (SN12C; Log10 Concentration −4.0): −64% | Mean Optical Densities (SN12C; Log10 Concentration −5.0): 0.932 | Percent Growth (SN12C; Log10 Concentration −5.0): 28% | Mean Optical Densities (SN12C; Log10 Concentration −6.0): 1.835 | Percent Growth (SN12C; Log10 Concentration −6.0): 90% | Mean Optical Densities (SN12C; Log10 Concentration −7.0): 1.898 | Percent Growth (SN12C; Log10 Concentration −7.0): 94% | Mean Optical Densities (SN12C; Log10 Concentration −8.0): 1.940 | Percent Growth (SN12C; Log10 Concentration −8.0): 97% | GI50 (HT29): 5.54 µM | TGI (HT29): 1.95E−5 | Mean Optical Densities (HT29; Log10 Concentration −4.0): 0.873 | Percent Growth (HT29; Log10 Concentration −4.0): −70% | Mean Optical Densities (HT29; Log10 Concentration −5.0): 0.502 | Percent Growth (HT29; Log10 Concentration −5.0): 28% | Mean Optical Densities (HT29; Log10 Concentration −6.0): 1.268 | Percent Growth (HT29; Log10 Concentration −6.0): 112% | Mean Optical Densities (HT29; Log10 Concentration −7.0): 1.248 | Percent Growth (HT29; Log10 Concentration −7.0): 110% | Mean Optical Densities (HT29; Log10 Concentration −8.0): 1.216 | Percent Growth (HT29; Log10 Concentration −8.0): 107% | GI50 (HCT-116): 3.79 µM | TGI (HCT-116): 1.43E−5 | Mean Optical Densities (HCT-116; Log10 Concentration −4.0): 0.061 | Percent Growth (HCT-116; Log10 Concentration −4.0): −80% | Mean Optical Densities (HCT-116; Log10 Concentration −5.0): 0.598 | Percent Growth (HCT-116; Log10 Concentration −5.0): 15% | Mean Optical Densities (HCT-116; Log10 Concentration −6.0): 2.231 | Percent Growth (HCT-116; Log10 Concentration −6.0): 98% | Mean Optical Densities (HCT-116; Log10 Concentration −7.0): 2.250 | Percent Growth (HCT-116; Log10 Concentration −7.0): 99% | Mean Optical Densities (HCT-116; Log10 Concentration −8.0): 2.298 | Percent Growth (HCT-116; Log10 Concentration −8.0): 102% | GI50 (MDA-MB-435): 7.64 µM | TGI (MDA-MB-435): 2.27E−5 | Mean Optical Densities (MDA-MB-435; Log10 Concentration −4.0): 0.109 | Percent Growth (MDA-MB-435; Log10 Concentration −4.0): −80% | Mean Optical Densities (MDA-MB-435; Log10 Concentration −5.0): 1.343 | Percent Growth (MDA-MB-435; Log10 Concentration −5.0): 44% | Mean Optical Densities (MDA-MB-435; Log10 Concentration −6.0): 2.253 | Percent Growth (MDA-MB-435; Log10 Concentration −6.0): 94% | Mean Optical Densities (MDA-MB-435; Log10 Concentration −7.0): 2.240 | Percent Growth (MDA-MB-435; Log10 Concentration −7.0): 93% | Mean Optical Densities (MDA-MB-435; Log10 Concentration −8.0): 2.396 | Percent Growth (MDA-MB-435; Log10 Concentration −8.0): 102% | GI50 (A498): 10.2 µM | TGI (A498): 3.47E−5 | Mean Optical Densities (A498; Log10 Concentration −4.0): 0.967 | Percent Growth (A498; Log10 Concentration −4.0): −43% | Mean Optical Densities (A498; Log10 Concentration −5.0): 2.150 | Percent Growth (A498; Log10 Concentration −5.0): 51% | Mean Optical Densities (A498; Log10 Concentration −6.0): 2.296 | Percent Growth (A498; Log10 Concentration −6.0): 67% | Mean Optical Densities (A498; Log10 Concentration −7.0): 2.301 | Percent Growth (A498; Log10 Concentration −7.0): 68% | Mean Optical Densities (A498; Log10 Concentration −8.0): 2.357 | Percent Growth (A498; Log10 Concentration −8.0): 74% | GI50 (786-0): 6.53 µM | TGI (786-0): 2.42E−5 | Mean Optical Densities (786-0; Log10 Concentration −4.0): 0.194 | Percent Growth (786-0; Log10 Concentration −4.0): −64% | Mean Optical Densities (786-0; Log10 Concentration −5.0): 1.194 | Percent Growth (786-0; Log10 Concentration −5.0): 40% | Mean Optical Densities (786-0; Log10 Concentration −6.0): 2.074 | Percent Growth (786-0; Log10 Concentration −6.0): 94% | Mean Optical Densities (786-0; Log10 Concentration −7.0): 2.022 | Percent Growth (786-0; Log10 Concentration −7.0): 91% | Mean Optical Densities (786-0; Log10 Concentration −8.0): 2.113 | Percent Growth (786-0; Log10 Concentration −8.0): 96% | GI50 (NCI-H460): 20.3 µM | TGI (NCI-H460): 5.67E−5 | Mean Optical Densities (NCI-H460; Log10 Concentration −4.0): 0.202 | Percent Growth (NCI-H460; Log10 Concentration −4.0): −28% | Mean Optical Densities (NCI-H460; Log10 Concentration −5.0): 2.401 | Percent Growth (NCI-H460; Log10 Concentration −5.0): 84% | Mean Optical Densities (NCI-H460; Log10 Concentration −6.0): 2.741 | Percent Growth (NCI-H460; Log10 Concentration −6.0): 98% | Mean Optical Densities (NCI-H460; Log10 Concentration −7.0): 2.825 | Percent Growth (NCI-H460; Log10 Concentration −7.0): 101% | Mean Optical Densities (NCI-H460; Log10 Concentration −8.0): 2.830 | Percent Growth (NCI-H460; Log10 Concentration −8.0): 101%

From patent US9469650B2, “Melampomagnolide B derivatives” (BOARD OF TRUSTEES OF THE UNIVERSITY OF ARKANSAS, priority 2013, dated 2016)
